The target of the assay is Recombinant human KIF18A (1-467His-tagged) protein (Homo sapiens (Human), UniProt Q8NI77). Nature of the assay: KIF18A enzyme assay (microtubule-stimulated ATPase activity, ADP-Glo). The format is biochemical. To be noted: 30 nM KIF18A, ATP 75 μM, read-out: inhibitory activity against KIF18A IC50. Put shortly:
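Baculovirus-expressed human KIF18A (1-467, His-tagged; 30 nM) preincubated 15 min at room temperature with compound (22-point 2-fold series) in pH 7.5 Tris buffer containing 30 μg/mL pig microtubules and 1 μM paclitaxel.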

We go through 42 compounds from patent US20250197382A1, “KIF18A INHIBITOR” (WIGEN BIOMEDICINE TECHNOLOGY (SHANGHAI) CO., LTD., priority 2022, published 2025).

The structures appear in SMILES notation.

Chain of Recombinant human KIF18A (1-467His-tagged) protein (Q8NI77 1-467): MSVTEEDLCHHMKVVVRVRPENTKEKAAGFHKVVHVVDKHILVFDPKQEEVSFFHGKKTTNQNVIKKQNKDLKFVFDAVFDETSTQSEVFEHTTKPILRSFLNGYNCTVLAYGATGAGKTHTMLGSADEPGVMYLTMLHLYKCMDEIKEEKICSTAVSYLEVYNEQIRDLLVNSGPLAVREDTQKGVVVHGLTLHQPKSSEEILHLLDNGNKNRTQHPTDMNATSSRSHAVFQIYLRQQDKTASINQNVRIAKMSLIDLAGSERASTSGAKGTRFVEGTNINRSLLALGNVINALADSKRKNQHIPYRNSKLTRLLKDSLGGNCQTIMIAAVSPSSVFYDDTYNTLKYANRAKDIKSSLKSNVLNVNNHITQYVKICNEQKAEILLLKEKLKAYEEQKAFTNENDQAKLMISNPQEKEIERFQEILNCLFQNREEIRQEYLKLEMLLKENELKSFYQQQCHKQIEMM
Chain of Recombinant human KIF18A (1-467His-tagged) protein (P02550 whole entry partner): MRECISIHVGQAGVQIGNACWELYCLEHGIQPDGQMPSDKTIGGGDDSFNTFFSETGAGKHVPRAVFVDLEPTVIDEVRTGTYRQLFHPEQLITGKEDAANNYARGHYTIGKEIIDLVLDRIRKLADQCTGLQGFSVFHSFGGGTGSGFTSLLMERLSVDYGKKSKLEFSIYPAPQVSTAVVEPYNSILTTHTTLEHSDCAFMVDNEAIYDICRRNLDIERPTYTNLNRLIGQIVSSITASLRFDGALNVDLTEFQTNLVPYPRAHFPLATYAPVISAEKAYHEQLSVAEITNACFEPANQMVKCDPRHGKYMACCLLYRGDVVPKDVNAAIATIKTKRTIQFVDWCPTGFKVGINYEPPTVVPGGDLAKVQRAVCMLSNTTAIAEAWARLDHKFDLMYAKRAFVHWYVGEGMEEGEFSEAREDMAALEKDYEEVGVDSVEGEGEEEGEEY
Chain of Recombinant human KIF18A (1-467His-tagged) protein (P02554 whole entry partner): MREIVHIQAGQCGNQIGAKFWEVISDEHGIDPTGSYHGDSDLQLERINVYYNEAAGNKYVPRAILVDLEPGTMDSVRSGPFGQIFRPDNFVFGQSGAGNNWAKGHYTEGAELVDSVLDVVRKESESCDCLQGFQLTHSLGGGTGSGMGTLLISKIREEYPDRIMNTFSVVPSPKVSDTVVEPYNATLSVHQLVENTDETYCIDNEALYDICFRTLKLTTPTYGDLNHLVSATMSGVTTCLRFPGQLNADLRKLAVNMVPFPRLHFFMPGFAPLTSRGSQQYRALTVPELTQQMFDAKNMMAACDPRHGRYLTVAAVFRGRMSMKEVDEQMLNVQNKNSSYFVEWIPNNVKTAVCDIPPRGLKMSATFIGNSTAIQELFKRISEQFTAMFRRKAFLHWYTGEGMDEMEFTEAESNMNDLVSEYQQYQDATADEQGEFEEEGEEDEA

As to `CN1CCc2cc(NC(=O)c3ccc(S(=O)(=O)NCCO)cc3N3CCC4(CC3)CC4)cc(N3CCC(C)(F)C3)c21` (stereo not drawn) [Compound 280], the IC50 was no more than 100 nM.

Regarding `CN1CCc2cc(NC(=O)c3ccc(S(=O)(=O)NCCO)cc3N3CCC4(CC3)CC4)cc(N3CC4CC4C3)c21` (stereo not drawn) [Compound 282], the IC50 was no more than 100 nM.

`CN1CCc2cc(NC(=O)c3ccc(S(=O)(=O)NCCO)cc3N3CCC4(CC3)CC4)cc(NC(C)(C)CO)c21` [Compound 283]: the IC50 is no more than 100 nM.

Turning to `CN1CCc2cc(NC(=O)c3ccc(S(=O)(=O)NCCO)cc3N3CCC4(CC3)CC4)cc(N3CCOCC3)c21` [Compound 284], the 50% inhibitory concentration (IC50) was no more than 100 nM.

In the case of `C[C@@H](CO)NS(=O)(=O)c1ccc(C(=O)Nc2cc3c(c(N4CCC(F)(F)CC4)c2)N(C)CC3)c(N2CCC3(CC2)CC3)c1` [Compound 285], the 50% inhibitory concentration (IC50) was no more than 100 nM.

For the compound `C[C@H](CO)NS(=O)(=O)c1ccc(C(=O)Nc2cc3c(c(N4CCC(F)(F)CC4)c2)N(C)CC3)c(N2CCC3(CC2)CC3)c1` [Compound 286], the 50% inhibitory concentration (IC50) is no more than 100 nM.

Turning to `C[C@@H]1CN(c2cc(NC(=O)c3ccc(S(=O)(=O)N[C@@H](C)CO)cc3N3CCC4(CC3)CC4)cc3c2N(C)CC3)CCO1` [Compound 287], the IC50 is no more than 100 nM.

Consider `C[C@H](CO)NS(=O)(=O)c1ccc(C(=O)Nc2cc3c(c(N4CCO[C@H](C)C4)c2)N(C)CC3)c(N2CCC3(CC2)CC3)c1` [Compound 288], for which the concentration for half-maximal inhibition (IC50) was no more than 100 nM.

On to `CN1CCc2cc(NC(=O)c3ccc(NS(=O)(=O)CCO)cc3N3CCC4(CC3)CC4)cc(N3CCC(F)(F)CC3)c21` [Compound 289], for which the IC50 was no more than 100 nM.

Take `C[C@@H]1CN(c2cc(C(=O)Nc3ccc(NS(=O)(=O)CCO)cc3N3CCC4(CC3)CC4)cc3c2N(C)CC3)CCO1` [Compound 290]: the 50% inhibitory concentration (IC50) is no more than 100 nM.

For the compound `C[C@H]1CN(c2cc(C(=O)Nc3ccc(NS(=O)(=O)CCO)cc3N3CCC4(CC3)CC4)cc3c2N(C)CC3)CCO1` [Compound 291], the half-inhibitory concentration (IC50) was no more than 100 nM.

As for `CN1CCc2cc(C(=O)Nc3ccc(NS(=O)(=O)CCO)cc3N3CCC4(CC3)CC4)cc(N3CC(F)(F)C3)c21` [Compound 292], the half-maximal inhibitory concentration (IC50) is no more than 100 nM.

Take `CN1CCc2cc(C(=O)Nc3ccc(NS(=O)(=O)CCO)cc3N3CCC4(CC3)CC4)cc(OCCC(F)(F)F)c21` [Compound 293]: the half-maximal inhibitory concentration (IC50) was no more than 100 nM.

`CN1CCc2cc(C(=O)Nc3ccc(NS(=O)(=O)CCO)cc3N3CCC4(CC3)CC4)cc(N3CCC4(CC4)C3)c21` [Compound 294]: the concentration for half-maximal inhibition (IC50) was no more than 100 nM.

`CN1CCc2cc(C(=O)Nc3ccc(NS(=O)(=O)CCO)cc3N3CCC4(CC3)CC4)cc(OC3CCC3)c21` [Compound 295]: the IC50 was no more than 100 nM.

Consider `CN1CCc2cc(C(=O)Nc3ccc(NS(=O)(=O)CCO)cc3N3CCC4(CC3)CC4)cc(N3CCC(F)CC3)c21` [Compound 297], for which the IC50 was no more than 100 nM.

Regarding `CN1CCc2cc(C(=O)Nc3ccc(NS(=O)(=O)CCO)cc3N3CCC4(CC3)CC4)cc(N3CC4CC4C3)c21` (stereo not drawn) [Compound 298], the 50% inhibitory concentration (IC50) is no more than 100 nM.

Regarding `CN1CCc2cc(C(=O)Nc3ccc(NS(=O)(=O)CCO)cc3N3CCC4(CC3)CC4)cc(NC(C)(C)CO)c21` [Compound 299], the IC50 was no more than 100 nM.

Turning to `CN1CCc2cc(C(=O)Nc3ccc(NS(=O)(=O)CCO)cc3N3CCC4(CC3)CC4)cc(N3CCOCC3)c21` [Compound 300], the IC50 is no more than 100 nM.

For the compound `C[C@@H](CO)S(=O)(=O)Nc1ccc(NC(=O)c2cc3c(c(N4CCC(F)(F)CC4)c2)N(C)CC3)c(N2CCC3(CC2)CC3)c1` [Compound 301], the IC50 is no more than 100 nM.

Regarding `C[C@H](CO)S(=O)(=O)Nc1ccc(NC(=O)c2cc3c(c(N4CCC(F)(F)CC4)c2)N(C)CC3)c(N2CCC3(CC2)CC3)c1` [Compound 302], the concentration for half-maximal inhibition (IC50) is no more than 100 nM.

For the compound `C[C@@H]1CN(c2cc(C(=O)Nc3ccc(NS(=O)(=O)[C@@H](C)CO)cc3N3CCC4(CC3)CC4)cc3c2N(C)CC3)CCO1` [Compound 303], the 50% inhibitory concentration (IC50) was no more than 100 nM.

As to `C[C@@H]1CN(c2cc(C(=O)Nc3ccc(NS(=O)(=O)[C@H](C)CO)cc3N3CCC4(CC3)CC4)cc3c2N(C)CC3)CCO1` [Compound 304], the IC50 was no more than 100 nM.

As for `CN1CCc2cc(C(=O)Nc3ccc(S(=O)(=O)NCCO)cc3N3CCC4(CC3)CC4)cc(N3CCC(F)(F)CC3)c21` [Compound 305], the IC50 is no more than 100 nM.

Turning to `C[C@@H]1CN(c2cc(C(=O)Nc3ccc(S(=O)(=O)NCCO)cc3N3CCC4(CC3)CC4)cc3c2N(C)CC3)CCO1` [Compound 306], the half-inhibitory concentration (IC50) was no more than 100 nM.

For `CN1CCc2cc(C(=O)Nc3ccc(S(=O)(=O)NCCO)cc3N3CCC4(CC3)CC4)cc(N3CC(F)(F)C3)c21` [Compound 308], the concentration for half-maximal inhibition (IC50) was no more than 100 nM.

For `CN1CCc2cc(C(=O)Nc3ccc(S(=O)(=O)NCCO)cc3N3CCC4(CC3)CC4)cc(OCCC(F)(F)F)c21` [Compound 309], the half-maximal inhibitory concentration (IC50) is no more than 100 nM.

Turning to `CN1CCc2cc(C(=O)Nc3ccc(S(=O)(=O)NCCO)cc3N3CCC4(CC3)CC4)cc(N3CCC4(CC4)C3)c21` [Compound 310], the 50% inhibitory concentration (IC50) is no more than 100 nM.

For the compound `CN1CCc2cc(C(=O)Nc3ccc(S(=O)(=O)NCCO)cc3N3CCC4(CC3)CC4)cc(N3CCC(C)(F)C3)c21` (stereo not drawn) [Compound 312], the IC50 was no more than 100 nM.

In the case of `CN1CCc2cc(C(=O)Nc3ccc(S(=O)(=O)NCCO)cc3N3CCC4(CC3)CC4)cc(N3CCC(F)CC3)c21` [Compound 313], the IC50 was no more than 100 nM.

For `CN1CCc2cc(C(=O)Nc3ccc(S(=O)(=O)NCCO)cc3N3CCC4(CC3)CC4)cc(N3CC4CC4C3)c21` (stereo not drawn) [Compound 314], the half-inhibitory concentration (IC50) was no more than 100 nM.

Regarding `CN1CCc2cc(C(=O)Nc3ccc(S(=O)(=O)NCCO)cc3N3CCC4(CC3)CC4)cc(NC(C)(C)CO)c21` [Compound 315], the IC50 was no more than 100 nM.

With `CN1CCc2cc(C(=O)Nc3ccc(S(=O)(=O)NCCO)cc3N3CCC4(CC3)CC4)cc(N3CCOCC3)c21` [Compound 316], the IC50 was no more than 100 nM.

In the case of `C[C@@H](CO)NS(=O)(=O)c1ccc(NC(=O)c2cc3c(c(N4CCC(F)(F)CC4)c2)N(C)CC3)c(N2CCC3(CC2)CC3)c1` [Compound 317], the IC50 is no more than 100 nM.

As to `C[C@H](CO)NS(=O)(=O)c1ccc(NC(=O)c2cc3c(c(N4CCC(F)(F)CC4)c2)N(C)CC3)c(N2CCC3(CC2)CC3)c1` [Compound 318], the half-maximal inhibitory concentration (IC50) is no more than 100 nM.

`C[C@@H]1CN(c2cc(C(=O)Nc3ccc(S(=O)(=O)N[C@@H](C)CO)cc3N3CCC4(CC3)CC4)cc3c2N(C)CC3)CCO1` [Compound 319]: the IC50 is no more than 100 nM.

On to `C[C@H](CO)NS(=O)(=O)c1ccc(NC(=O)c2cc3c(c(N4CCO[C@H](C)C4)c2)N(C)CC3)c(N2CCC3(CC2)CC3)c1` [Compound 320], for which the half-maximal inhibitory concentration (IC50) is no more than 100 nM.

On to `CN1CCc2cc(NC(=O)c3ccc(NS(=O)(=O)CCO)cc3N3CCC4(CC3)CC4)nc(N3CCC(F)(F)CC3)c21` [Compound 321], for which the half-maximal inhibitory concentration (IC50) is no more than 100 nM.

With `C[C@@H]1CN(c2nc(NC(=O)c3ccc(NS(=O)(=O)CCO)cc3N3CCC4(CC3)CC4)cc3c2N(C)CC3)CCO1` [Compound 322], the half-inhibitory concentration (IC50) was no more than 100 nM.

On to `C[C@H]1CN(c2nc(NC(=O)c3ccc(NS(=O)(=O)CCO)cc3N3CCC4(CC3)CC4)cc3c2N(C)CC3)CCO1` [Compound 323], for which the half-inhibitory concentration (IC50) was no more than 100 nM.

`CN1CCc2cc(NC(=O)c3ccc(NS(=O)(=O)CCO)cc3N3CCC4(CC3)CC4)nc(N3CC(F)(F)C3)c21` [Compound 324]: the IC50 was no more than 100 nM.

Take `CN1CCc2cc(NC(=O)c3ccc(NS(=O)(=O)CCO)cc3N3CCC4(CC3)CC4)nc(OCCC(F)(F)F)c21` [Compound 325]: the concentration for half-maximal inhibition (IC50) is no more than 100 nM.
